Assay [1] addresses T1, human glucagon receptor (Homo sapiens (Human), UniProt P47871). Kind of assay: Human Glucagon SPA Assay (binding of [125I]Glucagon-Cex). The conditions noted are these: membrane from chem-1 cells stably transfected with the human glucagon receptor, Ki by Cheng-Prusoff equation. The procedure:
The Glucagon SPA assay is used to determine the ability of test compounds to block the binding of glucagon-cex to the glucagon receptor. Test compounds are re-suspended and serially diluted in 100% DMSO. 1 μl of test compound at the desired concentrations is spotted into the appropriate wells of 96 well low binding white clear bottom plate (Corning). 1 μl of DMSO is spotted into total binding wells. 1 μl of a known glucagon antagonist at a concentration of 20 μM is added to non specific binding wells. […] All assay ingredients with the exception of test compounds are re-suspended in the following buffer; 50 mM Hepes pH 7.4; 5 mM MgCl2; 1 mM CaCl; 5% glycerol and 0.2% BSA. Following a 6-10 hr incubation at room temperature the amount of hot ligand bound to the cell membranes is determined by reading the plates on a Wallac Trilux radioactive emission detector. Data is analyzed using Pfizer's Data analysis program. IC50 values are then determined from the generated sigmoidal dose response curves. Ki values are calculated using Cheng-Prusoff equation. N is the number of times the compound was assayed.

Assay [2] deals with T1, human glucagon receptor. Kind of assay: Glucagon cAMP Assay (Cisbio cAMP detection). Format: cell-based. The conditions noted are these: CHOK1 cells stably transfected with the human glucagon receptor; block of glucagon induced cAMP production; Kb by modified Cheng-Prusoff equation. The procedure:
The Cisbio cAMP detection assay is used to determine the ability of punitive glucagon antagonist to block glucagon induced cAMP production. Potential glucagon antagonists are re-suspended and diluted in 100% DMSO. Prior to use in the Glucagon cAMP assay 100×DMSO compound stocks are diluted 20× with DMEM-F12 media (Invitrogen) containing either 0.1% or 4% BSA. […] 2 μls of 5% DMSO or known glucagon antagonist are added to each plate to define the assay window. CHOK1 cells stably transfected with the human glucagon receptor are removed from culture flasks with cell dissociation buffer. Cell pellets are re-suspended, at a concentration of 8.3e^5 cells/ml in DMEM-F12 with or without 4% BSA and 200 uM IBMX. 6 μls of cell suspensions are added to the assay plates. Plates are incubated for 20 min at room temperature prior to the addition of a 100 μM challenge dose of glucagon. On a separate plate glucagon dose response curves are run to determine the EC50 of glucagon. After a 30 min room temperature incubation the reaction is terminated by the addition of lysis buffer containing the cAMP detection reagents. Plates are incubated for an additional 60 min at room temperature prior to being read on the Perkin Elmer fluorescent plate reader. Raw is converted to nM of cAMP produced based on a cAMP standard curve. Converted data is then analyzed using the Pfizer data analysis program. IC50 values are determined from the generated sigmoidal dose response curves. Kb values are calculated using a modified Cheng-Prusoff equation. N is the number of times the compound was assayed.
For orientation: Changes in cAMP serve as a functional read-out for many G protein-coupled receptors.

In patent US8507533B2, “Glucagon receptor modulators” (Pfizer Inc., priority 2011, dated 2013) one finds Ki and Kb data, which are given here for 22 compounds.

Structures are written as SMILES. A value given as a limit tells only on which side of the number the result lay.

T1 sequence (P47871 26-477): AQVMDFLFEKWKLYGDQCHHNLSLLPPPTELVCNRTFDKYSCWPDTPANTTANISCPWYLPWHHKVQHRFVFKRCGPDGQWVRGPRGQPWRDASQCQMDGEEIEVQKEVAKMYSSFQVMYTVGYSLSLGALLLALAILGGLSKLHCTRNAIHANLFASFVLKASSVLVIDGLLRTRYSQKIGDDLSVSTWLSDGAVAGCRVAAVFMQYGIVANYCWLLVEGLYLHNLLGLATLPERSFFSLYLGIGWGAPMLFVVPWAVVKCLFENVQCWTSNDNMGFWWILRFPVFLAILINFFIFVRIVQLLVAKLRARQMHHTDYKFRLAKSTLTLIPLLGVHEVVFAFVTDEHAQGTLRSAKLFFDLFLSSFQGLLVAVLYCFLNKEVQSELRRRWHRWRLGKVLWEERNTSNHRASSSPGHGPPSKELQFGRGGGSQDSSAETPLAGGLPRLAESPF

As usually defined, the Ki is the dissociation constant of the complex between target and ligand, obtained from inhibition or displacement. Lower therefore signals tighter binding. For the compound `CCCC(Oc1ccc(-n2cc(Cl)c(C)n2)cc1)c1ccc(C(=O)NCCC(=O)O)cc1` (racemic) [Example 22, (+/−)-3-(4-(1-(4-(4-chloro-3-methyl-1H-pyrazol-1-yl)phenoxy)butyl)benzamido)propanoic acid], the Ki at human glucagon receptor [1] turned out to be 665 nM. In addition, the Kb at human glucagon receptor [2] is 835 nM.

As for `CCCCc1ccn(-c2ccc(OC(CCC)c3ccc(C(=O)NCCC(=O)O)cc3)cc2)n1` (racemic) [Example 31, (+/−)-3-(4-(1-(4-(3-butyl-1H-pyrazol-1-yl)phenoxy)butyl)benzamido)propanoic acid], the Ki on human glucagon receptor [1] was found to be 1330 nM. At human glucagon receptor [2], this compound came in with a Kb of 1450 nM.

As to `CCCC(Oc1ccc(-c2cc(C(F)(F)F)nn2C)cc1)c1ccc(C(=O)NCCC(=O)O)cc1` (racemic) [Example 53, (+/−)-3-(4-(1-(4-(1-methyl-3-(trifluoromethyl)-1H-pyrazol-5-yl)phenoxy)butyl)benzamido)propanoic acid], the affinity at human glucagon receptor [1], expressed as Ki, was 556 nM. Moreover, the Kb on human glucagon receptor [2] was 2610 nM.

On human glucagon receptor [2], `CCCC(Oc1ccc(-n2cnc(C(F)(F)F)n2)cc1)c1ccc(C(=O)NCCC(=O)O)cc1` (racemic) [Example 73, (+/−)-3-(4-(1-(4-(3-(trifluoromethyl)-1H-1,2,4-triazol-1-yl)phenoxy)butyl)benzamido)propanoic acid] registered a Kb of 2640 nM.

The compound `CCCC(Oc1ccc(-n2cc(C(F)(F)F)nc2C)cc1)c1ccc(C(=O)NCCC(=O)O)cc1` (racemic) [Example 75, (+/−)-3-(4-(1-(4-(2-methyl-4-(trifluoromethyl)-1H-imidazol-1-yl)phenoxy)butyl)benzamido)propanoic acid] had a Kb on human glucagon receptor [2] of 7710 nM.

For the compound `CCCC(Oc1ccc(-n2cc(C(F)(F)F)cn2)cn1)c1ccc(C(=O)NCCC(=O)O)cc1` (racemic) [Example 85, (+/−)-3-(4-(1-(5-(4-(trifluoromethyl)-1H-pyrazol-1-yl)pyridine-2-yloxy)butyl)benzamido)propanoic acid], at human glucagon receptor [2], the Kb stood at 4140 nM.

With `CCCC(Oc1ccc(-n2cnc(C(F)(F)F)c2)nc1)c1ccc(C(=O)NCCC(=O)O)cc1` (racemic) [Example 87, (+/−)-3-(4-(1-(6-(4-(trifluoromethyl)-1H-imidazol-1-yl)pyridine-3-yloxy)butyl)benzamido)propanoic acid], the Kb on human glucagon receptor [2] was determined as 9390 nM.

Compound `CCCC(Oc1ccc(-n2cc3c(n2)CCC3)cc1)c1ccc(C(=O)NCCC(=O)O)cc1` (racemic) [Example 90, (+/−)-3-(4-(1-(4-(5,6-dihydrocyclopenta[c]pyrazol-2(4H)-yl)phenoxy)butyl)benzamido)propanoic acid] had a Kb at human glucagon receptor [2] above 2500 nM.

On to `CCCC(Nc1ccc(-n2cc(C)nn2)cc1)c1ccc(C(=O)NCCC(=O)O)cc1` (racemic) [Example 92, (+/−)-3-(4-(1-(4-(4-methyl-1H-1,2,3-triazol-1-yl)phenylamino)butyl)benzamido)propanoic acid], for which, on human glucagon receptor [2], the Kb is 5600 nM.

In the case of `CC(C)CC(Nc1ncc(C(=O)NCCC(=O)O)cn1)c1ccc(-n2cc(C(F)(F)F)cn2)cc1` (racemic) [Example 93, (+/−)-3-(2-(3-methyl-1-(4-(4-(trifluoromethyl)-1H-pyrazol-1-yl)phenyl)butylamino)pyrimidine-5-carboxamido)propanoic acid], at human glucagon receptor [2], the Kb turned out to be 3840 nM.

In the case of `O=C(O)CCNC(=O)c1ccc(C(Nc2ccc(-n3cc(C(F)(F)F)cn3)nc2)C2CCCC2)cc1` (racemic) [Example 94, (+/−)-3-(4-(cyclopentyl(6-(4-(trifluoromethyl)-1H-pyrazol-1-yl)pyridine-3-ylamino)methyl)benzamido)propanoic acid], the Kb at human glucagon receptor [2] is 57.5 nM.

`O=C(O)CCNC(=O)c1ccc(NC(c2ccc(-n3cc(C(F)(F)F)cn3)cc2)C2CCCCC2)nc1` (racemic) [Example 99]: the Kb on human glucagon receptor [2] stood at 376 nM.

`CC(C)(C)CC(Nc1ccc(-n2cnc(C(F)(F)F)c2)nc1)c1ccc(C(=O)NCCC(=O)O)cc1` (racemic) [Example 100, (+/−)-3-(4-(3,3-dimethyl-1-(6-(4-(trifluoromethyl)-1H-imidazol-1-yl)pyridine-3-ylamino)butyl)benzamido)propanoic acid]: the Kb on human glucagon receptor [2] amounted to 226 nM.

In turn, `O=C(O)CCNC(=O)c1ccc(C(Nc2ccc(-n3cc(C(F)(F)F)cn3)nc2)C2CCCCC2)cc1` (racemic) [Example 101, (+/−)-3-(4-(cyclohexyl(6-(4-(trifluoromethyl)-1H-pyrazol-1-yl)pyridine-3-ylamino)methyl)benzamido)propanoic acid] registered a Ki at human glucagon receptor [1] of 17 nM. Besides, at human glucagon receptor [2], the Kb turned out to be 79.3 nM.

Compound `Cc1cc(NC(CC(C)C)c2ccc(C(=O)NCCC(=O)O)cn2)cnc1-n1cc(C(F)(F)F)cn1` (racemic) [Example 102, (+/−)-3-(6-(3-methyl-1-(5-methyl-6-(4-(trifluoromethyl)-1H-pyrazol-1-yl)pyridin-3-ylamino)butyl)nicotinamido)propanoic acid] gave a Kb at human glucagon receptor [2] of 3540 nM.

Compound `O=C(O)CCNC(=O)c1ccc(C(Nc2ccc(-n3cc(C(F)(F)F)cn3)nc2)C2CCCC2)cc1` (single isomer, unassigned) [Example 95, 3-(4-(cyclopentyl(6-(4-(trifluoromethyl)-1H-pyrazol-1-yl)pyridine-3-ylamino)methyl)benzamido)propanoic acid] registered a Kb on human glucagon receptor [2] of 32.8 nM.

At human glucagon receptor [2], `O=C(O)CCNC(=O)c1ccc(C(Nc2ccc(-n3cc(C(F)(F)F)cn3)nc2)C2CCCC2)cc1` (single isomer, unassigned) [Example 96, 3-(4-(cyclopentyl(6-(4-(trifluoromethyl)-1H-pyrazol-1-yl)pyridine-3-ylamino)methyl)benzamido)propanoic acid] yielded a Kb of 871 nM.

Compound `Cc1cc(-n2cc(C(F)(F)F)cn2)ccc1C(Nc1ccc(C(=O)NCCC(=O)O)cn1)C1CCCCC1` (single isomer, unassigned) [Example 117, 3-(6-(cyclohexyl(2-methyl-4-(4-(trifluoromethyl)-1H-pyrazol-1-yl)phenyl)methylamino)nicotinamido)propanoic acid] displayed a Kb on human glucagon receptor [2] of 227 nM.

Consider `Cc1cc(-n2cc(C(F)(F)F)cn2)ccc1C(Nc1ccc(C(=O)NCCC(=O)O)cn1)C1CCCCC1` (single isomer, unassigned) [Example 118, 3-(6-(cyclohexyl(2-methyl-4-(4-(trifluoromethyl)-1H-pyrazol-1-yl)phenyl)methylamino)nicotinamido)propanoic acid], for which the Kb on human glucagon receptor [2] stood at 1020 nM.

In the case of `CCCC(Nc1ccc(-n2cnc(C(F)(F)F)c2)nc1)c1ccc(C(=O)NCCC(=O)O)cc1` (single isomer, unassigned; isomer 1) [Example 10, 3-(4-(1-(6-(4-(trifluoromethyl)-1H-imidazol-1-yl)yridine-3-ylamino)butyl)benzamido)propanoic acid, Isomer 1], the Kb at human glucagon receptor [2] is 15500 nM.

For the compound `CCCC(Nc1ccc(-n2cnc(C(F)(F)F)c2)nc1)c1ccc(C(=O)NCCC(=O)O)cc1` (single isomer, unassigned; isomer 2) [Example 11, 3-(4-(1-(6-(4-(trifluoromethyl)-1H-imidazol-1-yl)yridine-3-ylamino)butyl)benzamido)propanoic acid, Isomer 2], the Kb on human glucagon receptor [2] amounted to 612 nM.

On to `CCCC(Oc1ccc(-n2cc(-c3ccccc3)cn2)nc1)c1ccc(C(=O)NCCC(=O)O)cc1` (centres unmarked) [Example 133], for which the Kb on human glucagon receptor [2] came out at 75 nM.
